In US20210196751A1, “METHODS OF CANCER TREATMENT USING AN ATR INHIBITOR” (Vertex Pharmaceuticals Incorporated, priority 2017, published 2021):

System: panel of 552 cancer cell lines
Assay: Growth inhibition (ATPLite) of ATR inhibitor in combination with cisplatin or gemcitabine; synergy score from AUC difference
Assay type: cell-based
Settings: 96 hours; for synergy when combined with cisplatin: in combination with cisplatin; for synergy when combined with gemcitabine: in combination with gemcitabine
Method: Cell Culture Methods. Cells were removed from liquid nitrogen storage, thawed and expanded in appropriate growth media. Once expanded, cells were seeded in 384-well tissue culture treated plates at 500 cells per well. […] At the end of either 0 hours or 96 hours, cell status was analyzed using ATPLite (adenosine triphosphate monitoring system; Perkin Elmer) to assess the biological response of cells to drug combinations.
In this study, growth inhibition (GI) was used as the primary endpoint. ATP monitoring was performed using ATPLite, which allows for the monitoring of cytocidal, cytostatic and proliferative effects of drugs on cells.
Data Analysis to Assess Synergy of Combination Treatments. […] Synergy was evaluated using the sum of the AUC (Area Under the Curve) difference.
Briefly, combination treatment effect was calculated as the AUC normalized to the single agent effect of the ATR inhibitor compound. Total synergy or antagonism was calculated as the difference between the normalized combination AUC and the genotoxin single agent AUC. As before, the synergy score was normalized by dividing the total synergy score by the total number of regimens used.

## CNCc1ccc(-c2cc(-c3nc(-c4ccc(S(=O)(=O)C(C)C)cc4)cnc3N)on2)cc1 [IIA-7]
  synergy when combined with cisplatin: synergistic
  synergy when combined with gemcitabine: synergistic

## Nc1nn2cc(F)cnc2c1C(=O)Nc1cncc(F)c1N1CCC(C(=O)N2CCN(C3COC3)CC2)CC1 [I-G-32]
  synergy when combined with cisplatin: synergistic
  synergy when combined with gemcitabine: synergistic
